From PMC12735921, “Evaluation of Antiproliferative Activity and Molecular Modeling Studies of Some Novel Benzimidazolone-Bridged Hybrid Compounds” (Pharmaceuticals, 2025)
Where “and” joins values, the source holds several entries; their conditions need not be identical. Equal values may be shown once.

Columns and labels:
Assay type in all cases: cell-based, human
A549 cells = assay: MTT cell viability assay, A549; settings: for IC50: MTT, 48 h, mean ± SD, n = 3; for A549 Selectivity Index (SI): SI = IC50 (HEK 293)/IC50 (A549)
Description: (§1) Cell viability assay was performed on the human lung cancer (A549) (ATCC CCL-185), human breast cancer (MCF-7) (ATCC-HTB-22), cervical cancer (HeLa) (ATCC-CCL-2), and human embryonic kidney 293 (HEK293) (ATCC-CRL-1573) cell lines, which were purchased from Deutsche Sammlung von Mikroorganismen und Zellkulturen (DSMZ, Braunschweig, Germany). The cells were maintained in Dulbecco’s modified Eagle’s medium (DMEM), supplemented with 10% fetal bovine serum (FBS), 2 mM L-glutamine, 100 U/mL penicillin, and 100 mg/L streptomycin (Biochrom AG, Berlin, Germany) at 37 °C in a humidified atmosphere of 5% CO2.
(§2) The cytotoxic effect was determined by the MTT (3-(4,5-dimethyl-2-thiazolyl)-2,5-diphenyl-2H-tetrazolium bromide) cell viability assay. Cells were seeded at an initial concentration of 1 × 10^5 cells/mL in 96-well microplates. Cells were then treated with different concentrations (0.5, 5, 10, 25, 50, 100 and 200 µM) of the novel synthesized compounds for 48 h. After the incubation period, the formed formazan crystals were dissolved in dimethyl sulfoxide (DMSO), and the optical density (OD) of the compounds was measured at 570 nm using a spectrophotometer (BMG Labtech, Ortenberg, Germany). Cytotoxicity was expressed as an increase in the mean percentage of cytotoxicity relative to the unexposed control ± standard deviation (SD). […] Control values were set at 0% cytotoxicity. IC50 was calculated by fitting the data to a sigmoidal curve using a four-parameter logistic model and was presented as an average of three independent measurements. […] Doxorubicin was used as a positive control. Each sample was tested in triplicate.
(§3) To evaluate the selectivity of the tested compound(s) toward cancer cells over normal cells, the Selectivity Index (SI) was calculated using the following formula:SI = IC50 (normal cells)/IC50 (cancer cells)
(§4) An SI value greater than 2 was considered to indicate selective cytotoxicity, while values below 2 were interpreted as non-selective. Higher SI values reflect greater therapeutic potential due to reduced toxicity toward normal cells.

MCF-7 cells = assay: MTT cell viability assay, MCF-7; settings: for IC50: MTT, 48 h, mean ± SD, n = 3; for MCF-7 Selectivity Index (SI): SI = IC50 (HEK 293)/IC50 (MCF-7)
Description: as §1, §2, §3, §4

HeLa cells [1] = assay: MTT cell viability assay, HeLa; settings: for IC50: MTT, 48 h, mean ± SD, n = 3; for HeLa Selectivity Index (SI): SI = IC50 (HEK 293)/IC50 (HeLa)
Description: as §1, §2, §3, §4

HEK 293 cells = assay: MTT cell viability assay, non-cancerous HEK 293; settings: mean ± SD, n = 3
Description: as §1
The cytotoxic effect was determined by the MTT (3-(4,5-dimethyl-2-thiazolyl)-2,5-diphenyl-2H-tetrazolium bromide) cell viability assay. Cells were seeded at an initial concentration of 1 × 10^5 cells/mL in 96-well microplates. Cells were then treated with different concentrations (0.5, 5, 10, 25, 50, 100 and 200 µM) of the novel synthesized compounds for 48 h. After the incubation period, the formed formazan crystals were dissolved in dimethyl sulfoxide (DMSO), and the optical density (OD) of the compounds was measured at 570 nm using a spectrophotometer (BMG Labtech, Ortenberg, Germany). Cytotoxicity was expressed as an increase in the mean percentage of cytotoxicity relative to the unexposed control ± standard deviation (SD). […] Control values were set at 0% cytotoxicity. IC50 was calculated by fitting the data to a sigmoidal curve using a four-parameter logistic model and was presented as an average of three independent measurements. […] Each sample was tested in triplicate.

HeLa cells [2] = assay: LDH leakage assay, HeLa; settings: IC50 concentration of compound, 48 h, H2O2 positive control, mean ± SD, n = 3
Description: One hundred microliters of culture medium was transferred to a new 96-well plate. One hundred microliters of LDH reaction solution was added to each well, and absorbance was measured at 490 nm using an ELISA plate reader (BMG Labtech, Ortenberg, Germany) after 30 min.

HeLa cells [3] = assay: Total oxidative status (TOS), HeLa; settings: IC50 concentration of compound, 48 h, H2O2 250 µM positive control, mean ± SD, n = 3
Description: TOS were evaluated using a commercially available kit (Rel Assay Diagnostics®, Gaziantep, Turkey) according to the manufacturer’s instructions. […] The TOS assay quantifies oxidizing agents based on their ability to convert an iron (II) ion chelator complex to iron (III) ions. The results were calibrated against hydrogen peroxide (H2O2, 250 µM) as a positive control for 48 h and expressed as µmol H2O2 equivalents per liter. The analysis was performed in three independent biological replicates (n = 3).

HeLa cells [4] = assay: Intracellular GSH/GSSG ratio, HeLa; settings: IC50 concentration of compound, 48 h, H2O2 positive control, mean ± SD, n = 3
Description: Intracellular reduced (GSH) and oxidized (GSSG) glutathione levels were measured using the GSH/GSSG Ratio Detection Assay Kit (Cayman Chemical, Ann Arbor, MI, USA, Cat. No: 703002) according to the manufacturer’s protocol. […] After treatment, cells were washed with cold PBS and lysed with MES buffer provided in the kit.
To prevent oxidation of GSH to GSSG during processing, samples were deproteinized using the supplied metaphosphoric acid solution and neutralized accordingly. Total glutathione and GSSG levels were measured separately by adding the appropriate buffers and reagents to the wells of a 96-well plate, followed by the addition of DTNB recycling reagent and glutathione reductase. Absorbance was read at 405 nm using a microplate reader (BMG Labtech, Germany). The amount of GSH was calculated by subtracting 2 × GSSG from the total glutathione, and the GSH/GSSG ratio was used to assess intracellular redox status.

HeLa cells [5] = assay: Cell cycle analysis (PI staining, flow cytometry), HeLa; settings: IC50 concentration, 48 h, mean ± SEM, n = 3
Description: Cell cycle distribution was assessed by propidium iodide (PI) staining and flow cytometry. HeLa, MCF-7, and A549 cells were seeded in 6-well plates at a density of 1 × 10^5 cells per well and allowed to attach overnight. […] Following exposure, both adherent and floating cells were collected, washed twice with cold phosphate-buffered saline (PBS, pH 7.4), and fixed overnight in 70% cold ethanol at 4 °C. After fixation, the cells were centrifuged and resuspended in 500 µL of PI/RNase staining solution containing 50 µg/mL PI and 100 µg/mL RNase A (Sigma-Aldrich®, St. Louis, MO, USA), followed by incubation in the dark for 30 min at 37 °C. The stained samples were analyzed using a Muse™ Cell Analyzer (Merck, Millipore, Germany) equipped with a 488 nm excitation laser and a 617 nm emission filter. A minimum of 10,000 events per sample were acquired after exclusion of debris and doublets via FSC-A vs. FSC-H gating. The DNA content histograms were generated automatically, and cell populations were expressed as percentages of G0/G1, S, and G2/M phases using the Muse™ Cell Cycle Analysis Software 1.5.0.0. All assays were conducted in triplicate biological repeats (n = 3), and results were reported as mean ± SEM.

Row | Molecule | IC50 (A549 cells; Homo sapiens, A549) [µM] | IC50 (MCF-7 cells; Homo sapiens, MCF7) [µM] | IC50 (HeLa cells [1]; Homo sapiens, HeLa) [µM] | IC50 (A549 cells) [µM] | IC50 (MCF-7 cells) [µM] | IC50 (HeLa cells [1]) [µM] | IC50 (HEK 293 cells; 48 h) [µM] | A549 Selectivity Index (SI) (A549 cells) | MCF-7 Selectivity Index (SI) (MCF-7 cells) | HeLa Selectivity Index (SI) (HeLa cells [1]) | IC50 (HEK 293 cells; Homo sapiens, HEK293, 48 h) [µM] | LDH (HeLa cells [2]) | TOS (HeLa cells [3]) | GSH/GSSG (HeLa cells [4]) | cells in G0/G1 phase (HeLa cells [5]) [%] | cells in G2/M phase (HeLa cells [5]) [%] | cells in S phase (HeLa cells [5]) [%]
1 | 2,2′-(5,6-Dichloro-2-oxo-1H-benzimidazole-1,3(2H)-diyl)bis[N′-(furan-2-ylmethylidene) acetohydrazide] [Compound 4] |  |  |  | 48 ± 2.77 | 58 ± 3.35 | 72 ± 4.16 | 55 ± 3.17 |  |  |  |  |  |  |  |  |  | 
2 | CCOC(=O)Cn1c(=O)n(CC(=O)OCC)c2cc(Cl)c(Cl)cc21 [Compound 2, Diethyl 2,2′-(5,6-Dichloro-2-oxo-1H-benzimidazole-1,3(2H)-diyl)diacetate] | 60.8 ± 3.51 | 63.2 ± 3.65 | 68.8 ± 3.9 |  |  |  |  | 1.17 | 1.13 | 1.04 | 71.3 ± 4.12 |  |  |  |  |  | 
3 | NNC(=O)Cn1c(=O)n(CC(=O)NN)c2cc(Cl)c(Cl)cc21 [Compound 3, 2,2′-(5,6-Dichloro-2-oxo-1H-benzimidazole-1,3(2H)-diyl)diacetohydrazide] | 63.5 ± 3.6 | 69.8 ± 4.03 | 75.4 ± 4.35 |  |  |  |  | 1.06 | 0.97 | 0.89 | 67.9 ± 3.9 |  |  |  |  |  | 
4 | O=C(Cn1c(=O)n(CC(=O)N/N=C/c2cccs2)c2cc(Cl)c(Cl)cc21)N/N=C/c1cccs1 [Compound 5] | 48.3 ± 2.79 | 50.2 ± 2.9 | 26.1 ± 1.5 |  |  |  |  | 1.22 | 1.18 | 2.27 | 59.4 ± 3.43 | 24.8 ± 2.1 µU/mL and 24.8 ± 2.1 ^a,b µU/mL | 6.9 ± 0.5 µmol H2O2 eq/L and 6.9 ± 0.5 ^a,b µmol H2O2 eq/L | 11.8 ± 1.3 | 44.5 ± 2.2 | 30.0 ± 1.5 | 25.5 ± 1.6
5 | O=C(Cn1c(=O)n(CC(=O)c2ccccc2)c2cc(Cl)c(Cl)cc21)c1ccccc1 [Compound 8, 5,6-Dichloro-1,3-bis(2-oxo-2-phenylethyl)-1,3-dihydro-2H-benzimidazol-2-one] | 19.1 ± 1.1 | 21.7 ± 1.25 | 23.9 ± 1.38 |  |  |  |  | 0.91 | 0.8 | 0.73 | 17.5 ± 1.01 |  |  |  |  |  | 
6 | COc1cccc2c1C(=O)c1c(O)c3c(c(O)c1C2=O)C[C@@](O)(C(=O)CO)C[C@@H]3O[C@H]1C[C@H](N)[C@H](O)[C@H](C)O1 [Doxorubicin, reference compound] | 4.3 ± 0.2 | 6.4 ± 0.37 | 3.4 ± 0.19 |  |  |  |  |  |  |  |  |  |  |  |  |  | 

More lines, main results first:

Row | IC50 (A549 cells; Homo sapiens, A549) [µM] | IC50 (MCF-7 cells; Homo sapiens, MCF7) [µM] | IC50 (HeLa cells [1]; Homo sapiens, HeLa) [µM] | Molecule | IC50 (A549 cells) [µM] | IC50 (MCF-7 cells) [µM] | IC50 (HeLa cells [1]) [µM] | IC50 (HEK 293 cells; 48 h) [µM] | A549 Selectivity Index (SI) (A549 cells) | MCF-7 Selectivity Index (SI) (MCF-7 cells) | HeLa Selectivity Index (SI) (HeLa cells [1]) | IC50 (HEK 293 cells; Homo sapiens, HEK293, 48 h) [µM] | LDH (HeLa cells [2]) | TOS (HeLa cells [3]) | GSH/GSSG (HeLa cells [4]) | cells in G0/G1 phase (HeLa cells [5]) [%] | cells in G2/M phase (HeLa cells [5]) [%] | cells in S phase (HeLa cells [5]) [%]
7 | 21.7 ± 1.25 | 50.8 ± 2.93 | 48.5 ± 2.8 | O=C(Cn1c(=O)n(CC(=O)NNC(=O)c2cc3ccccc3oc2=O)c2cc(Cl)c(Cl)cc21)NNC(=O)c1cc2ccccc2oc1=O [Compound 12a, N′,N′′′ -(2,2′-(5,6-dichloro-2-oxo-1H-benzo[d]imidazole-1,3(2H)-diyl)bis(acetyl))bis(2-oxo-2H-chromene-3-carbohydrazide)] |  |  |  |  | 2.05 | 0.87 | 0.91 | 44.6 ± 2.57 |  |  |  |  |  | 
8 | 35.2 ± 2 | 25.8 ± 1.5 | 13.6 ± 0.78 | O=C(Cn1c(=O)n(CC(=O)NNC(=O)c2cc3cc(Cl)ccc3oc2=O)c2cc(Cl)c(Cl)cc21)NNC(=O)c1cc2cc(Cl)ccc2oc1=O [Compound 12b, N′,N′′′ -(2,2′-(5,6-dichloro-2-oxo-1H-benzo[d]imidazole-1,3(2H)-diyl)bis(acetyl))bis(6-chloro-2-oxo-2H-chromene-3-carbohydrazide)] |  |  |  |  | 1.39 | 1.9 | 3.61 | 49.1 ± 2.83 | 28.5 ± 2.3 µU/mL and 28.5 ± 2.3 ^a,b µU/mL | 8.1 ± 0.6 µmol H2O2 eq/L and 8.1 ± 0.6 ^a,b µmol H2O2 eq/L | 10.1 ± 1.1 | 41.0 ± 2.1 | 35.0 ± 1.7 | 24.0 ± 1.4
9 | 52.8 ± 3 | 65.1 ± 3.76 | 54.3 ± 3.13 | COc1cccc2cc(C(=O)NNC(=O)Cn3c(=O)n(CC(=O)NNC(=O)c4cc5cccc(OC)c5oc4=O)c4cc(Cl)c(Cl)cc43)c(=O)oc12 [Compound 12e, N′,N′′′ -(2,2′-(5,6-dichloro-2-oxo-1H-benzo[d]imidazole-1,3(2H)-diyl)bis(acetyl))bis(8-methoxy-2-oxo-2H-chromene-3-carbohydrazide)] |  |  |  |  | 1.14 | 0.92 | 1.1 | 60.2 ± 3.47 |  |  |  |  |  | 
10 | 23.6 ± 1.3 | 26.4 ± 1.52 | 29.1 ± 1.26 | CCN(CC)c1ccc2cc(C(=O)NNC(=O)Cn3c(=O)n(CC(=O)NNC(=O)c4cc5ccc(N(CC)CC)cc5oc4=O)c4cc(Cl)c(Cl)cc43)c(=O)oc2c1 [Compound 12f] |  |  |  |  | 1.84 | 1.64 | 1.49 | 43.5 ± 2.51 |  |  |  |  |  | 
